# Laboratory results reported in US20260167637A1, “NLRP3 INFLAMMASOME INHIBITOR AND USE THEREOF” (TransThera Sciences (Nanjing), Inc., priority 2022, published 2026).
# What was measured:
# [1] = Stability in canine liver microsomes; format: in vitro ADME; conditions: canine liver microsomes 0.5 mg protein/mL, 1 μM test substance, β-NADPH 1 mM, 37° C.; for microsomal CLint at 1 μM / half-life at 1 μM: dog; for half-life at 1 μM: read-out: Canine t1/2
# Procedure, shortened: (§1)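 Compounds (10 μM working solution; 0.1% DMSO) were incubated at 37 °C with dog or rat liver microsomes in phosphate buffer with 3 mM MgCl2, with or without NADPH, sampled to 60 min. Remaining compound was measured by LC/MS/MS; t1/2 and CL came from first-order kinetics.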
# [2] = biological target: T1, hERG potassium ion channel (Homo sapiens, UniProt Q12809); assay: Inhibition of hERG potassium ion channel, whole-cell patch clamp in HEK-293 cells; format: cell-based; conditions: HEK-293 cells stably expressing hERG, tail current, room temperature
# T1 construct: expressed in transfected cells
# Description: Experimental Example 5: Inhibition of hERG Potassium Ion Channel by Compounds
# 1.1. An HEK-293 cell line stably expressing the hERG potassium channel was cultured at 37° C. with 5% carbon dioxide in DMEM medium containing 10% fetal bovine serum and 0.8 mg/mL G418. The cell density must not exceed 80%.
# 1.2. Before patch-clamp testing, cells were dissociated with TrypLE™ Express, and 4×10^3 cells were applied to a coverslip. After 18 h, testing was performed.
# 2.1. Blank control: DMSO stock solution.
# 2.2. Positive control: An appropriate amount of cisapride was weighed out and prepared into a 10 mM stock solution using dimethyl sulfoxide (DMSO). The stock solution was aliquoted, and the aliquots were stored at −20° C.
# 2.3. Compound: An appropriate amount of the compound was weighed out, and the required volume of DMSO was calculated using the formula DMSO volume=actual amount×purity (content)/(molecular weight×theoretical concentration), and measured out using a pipette. The compound that had been weighed out was dissolved in the DMSO that had been measured out using a pipette. Meanwhile, the mass of the DMSO was measured. The actual stock solution concentration was calculated based on the amount of DMSO finally used.
# Before hERG channel current testing, the blank control stock solution was diluted with an appropriate amount of extracellular liquid to prepare a working solution. The positive control stock solution and the compound stock solution were diluted with an appropriate amount of extracellular liquid to prepare working solutions. […]
# Recording electrodes were prepared from capillary glass tubes using a microelectrode puller. […] Under an inverted microscope, a microelectrode manipulator was used to immerse the electrode in extracellular liquid, and the electrode resistance (Rpip) was recorded. […] Then, slow capacitance compensation was performed, and experimental parameters such as membrane capacitance (Cm) and series resistance (Rs) were recorded. […]
# [3] = Stability in rat liver microsomes; format: in vitro ADME; conditions: rat liver microsomes 0.5 mg protein/mL, 1 μM test substance, β-NADPH 1 mM, 37° C.; for half-life at 1 μM: read-out: Rat t1/2
# Procedure, shortened: as §1
# T1 sequence (Q12809 whole entry): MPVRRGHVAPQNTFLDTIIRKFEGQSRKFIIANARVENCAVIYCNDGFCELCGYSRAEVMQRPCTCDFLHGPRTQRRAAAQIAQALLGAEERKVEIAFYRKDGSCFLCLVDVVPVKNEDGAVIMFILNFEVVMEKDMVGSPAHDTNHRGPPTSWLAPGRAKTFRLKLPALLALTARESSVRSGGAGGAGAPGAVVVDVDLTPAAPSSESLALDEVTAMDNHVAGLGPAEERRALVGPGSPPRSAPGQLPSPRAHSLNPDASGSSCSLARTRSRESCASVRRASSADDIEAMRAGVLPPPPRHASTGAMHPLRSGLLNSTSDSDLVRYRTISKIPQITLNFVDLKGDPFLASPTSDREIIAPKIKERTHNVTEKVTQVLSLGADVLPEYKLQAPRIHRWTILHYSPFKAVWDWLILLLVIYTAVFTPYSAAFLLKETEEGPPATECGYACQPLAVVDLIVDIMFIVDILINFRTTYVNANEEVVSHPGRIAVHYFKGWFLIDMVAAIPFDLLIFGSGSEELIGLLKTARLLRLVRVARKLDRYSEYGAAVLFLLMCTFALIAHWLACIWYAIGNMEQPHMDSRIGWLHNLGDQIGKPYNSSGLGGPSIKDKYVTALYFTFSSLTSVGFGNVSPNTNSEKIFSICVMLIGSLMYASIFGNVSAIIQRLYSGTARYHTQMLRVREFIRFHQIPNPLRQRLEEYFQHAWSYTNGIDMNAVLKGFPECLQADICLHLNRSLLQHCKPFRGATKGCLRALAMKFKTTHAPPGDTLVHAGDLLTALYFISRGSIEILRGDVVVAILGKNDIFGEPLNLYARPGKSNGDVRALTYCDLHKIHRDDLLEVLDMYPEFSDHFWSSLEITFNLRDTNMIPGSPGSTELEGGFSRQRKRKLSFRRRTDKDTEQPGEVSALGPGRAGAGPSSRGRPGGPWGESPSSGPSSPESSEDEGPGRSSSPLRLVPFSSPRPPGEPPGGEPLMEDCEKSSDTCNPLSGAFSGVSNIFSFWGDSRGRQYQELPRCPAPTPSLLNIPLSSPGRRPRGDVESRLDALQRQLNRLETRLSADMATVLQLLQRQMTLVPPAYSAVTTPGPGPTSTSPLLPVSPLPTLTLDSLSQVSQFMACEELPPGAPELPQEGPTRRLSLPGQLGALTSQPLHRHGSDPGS
SMILES,Canine t1/2 [1],IC50 [2] [µM],Rat t1/2 [3],microsomal CLint at 1 μM [1] [µL/min/mg],half-life at 1 μM [1] [h],microsomal CLint at 1 μM [3] [µL/min/mg],half-life at 1 μM [3] [h]
"C#Cc1ccc(-c2nnc(N[C@@H]3CCCN(C)C3)c(=O)n2C)c(O)c1 [Compound 23, (R)-3-(4-ethynyl-2-hydoxyphenyl)-4-methyl-6-((1-methylpiperidin-3-yl)amino)-1,2,4-triazin-5(4H)-one]",→∞,> 10,→∞,,,,
"C#Cc1ccc(-c2nnc(N[C@@H]3CCCN(CCO)C3)cc2C2CC2)c(O)c1 [Compound 45, (R)-2-(4-Cyclopropyl-6-((1-(2-hydroxyethyl)piperidin-3-yl)amino)pyridazin-3-yl)-5-ethynylphenol]",,,,1.4,16.5,6.8,3.4
"C#Cc1ccc(-c2nnc(N[C@@H]3CCCN(C)C3)cc2C(C)C)c(O)c1 [Compound 81, (R)-5-ethynyl-2-(4-isopropyl-6-((1-methylpiperidin-3-yl)amino)pyridazin-3-yl)phenol]",,> 10,,5,4.62,3,7.7
"C#Cc1ccc(-c2nnc(N[C@@H]3CCCN(C)C3)c(C#N)c2C)c(O)c1 [Compound 103, (R)-6-(4-ethynyl-2-hydroxyphenyl)-5-methyl-3-((1-methylpiperidin-3-yl)amino)pyridazine-4-carbonitrile]",,> 10,,8.4,2.75,8.2,2.82
